Results published in the METLIN SMRT retention time set (Domingo-Almenara et al. 2019).

Test: gradient 5% acetonitrile 3 min, to 50% in 2 min, to 85% in 15 min, held 3 min, 100 µL/min
Conditions: column: Zorbax Extend-C18 2.1 x 50 mm; eluents: water / acetonitrile, 0.1% formic acid
Procedure, shortened: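 Mixtures of ~100 pure standards were chromatographed on a Zorbax Extend-C18 column (2.1 × 50 mm, 1.8 μm) at 100 μL/min using water and acetonitrile, each with 0.1% formic acid. Detection used a quadrupole time-of-flight mass spectrometer in positive and negative ionization mode, and data collection spanned 3 months. Retention time was obtained from adduct peaks picked computationally and each checked manually.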

| RP-LC retention time [s] | SMILES |
| --- | --- |
| 775 | COCCCNC(=O)Cn1ncc2c(C)n(Cc3ccc(Cl)cc3)c(C)c2c1=O |
| 660 | COc1ccc(NC(=O)N2C[C@@H](F)C[C@H]2C(=O)N2CCCCC2)cc1F |
| 906 | CCOC(=O)C1CCN(c2cc3c(cc2NC(=O)C2CCCCC2)n(C)c(=O)c(=O)n3C)CC1 |
| 560 | CN(C)CCNC(=O)c1nc(N2CCSCC2)c2cnn(C)c2n1 |
| 700 | C=CCNC(=O)COc1cccc2c(=O)n(CC=C)ccc12 |
| 948 | Cc1ccc2nc(NC(=O)Cn3c(=O)n(C(C)C)c4ccc(-c5noc(C)n5)cc43)sc2c1 |
| 750 | CC1CCN(C(=O)C2CCN(S(=O)(=O)c3cc(C(=O)N4CCCC4)n(C)c3)CC2)CC1 |
| 1210 | Cn1nccc1-c1cccc(-c2noc(-c3cc(Cl)ccc3F)n2)c1 |
| 658 | COCc1c(C(=O)O)nnn1Cc1ccc(OC)c(F)c1 |
| 703 | CC(=O)N1CCCC1c1nc(C2CN(S(=O)(=O)c3cccs3)C2)no1 (configuration not stated) |
| 732 | COC(=O)c1cnc2nc(C)ccc2c1Nc1ccc(Br)cc1C |
| 716 | CSc1ccc(-c2nc3ccc(C)cn3c2Nc2ccc3c(c2)OCCO3)cc1 |
| 649 | COc1cc(NC(=O)N2CCN(c3cc(-c4ccccc4)ncn3)CC2)cc(OC)c1 |
| 555 | O=c1ccc(-n2ccnc2)nn1CCNS(=O)(=O)Cc1cc(F)ccc1F |
| 714 | Cc1cc(C(=O)N2CCN(c3ccccc3F)CC2)n[nH]1 |
| 762 | CCOC(=O)c1ccc(NC(=O)C2CCCN(S(C)(=O)=O)C2)cc1 (configuration not stated) |
| 1200 | Cc1cccc(CNC(=O)c2cc3c(-c4cccs4)nn(-c4ccccc4)c3n2C)c1 |
| 822 | O=C(NCc1nc(-c2ccccc2)no1)c1cc(C2CC2)on1 |
| 702 | Cc1cccc(N2CCN(C(=O)c3cn4cc(C)ccc4n3)CC2)c1 |
| 663 | COc1cccc(CNC(=O)c2cc3c(=O)n(C)ccc3n2C)c1 |
| 799 | CCc1nc(-c2csc(S(=O)(=O)N3CCC(C(=O)Nc4ccc(C)cn4)CC3)c2)no1 |
| 721 | CCn1ccc(C(=O)N2CCN(c3nc4cccnc4n(C)c3=O)CC2)n1 |
| 727 | Cn1nc(C(=O)N2CCN(c3ccccc3Cl)CC2)ccc1=O |

| RP-LC retention time [s] | SMILES |
| --- | --- |
| 712 | CCC(=O)Nc1c(C(=O)NC)oc2ccccc12 |
| 769 | CN1c2ccc(F)cc2C(=O)NC12CCN(C(=O)c1ccc(F)cc1)CC2 |
| 809 | COc1cc(CNC(=O)CCc2ccc(C(F)(F)F)cc2)cc(OC)c1OC |
| 746 | Cc1sc(NC(=O)c2ccccc2)c(C(Nc2ccccn2)c2cccs2)c1C (configuration not stated) |
| 934 | O=C1COc2ccccc2N1Cc1nc(-c2ccc3c(c2)OCO3)no1 |
| 605 | CCOC(=O)c1cnc(N2CCN(Cc3ccc4c(c3)OCO4)CC2)[nH]c1=O |
| 659 | COC(=O)c1cnc2nc(C)ccc2c1NCc1ccc2c(c1)OCO2 |
| 700 | CCCC(=O)Nc1nc(C(=O)OCC)cs1 |
| 865 | CC(C)COc1nc2c(c(=O)n(C)c(=O)n2C)n1C |
| 950 | CC(C)CCNC(=O)C1(C)CCc2ccccc2C(=O)N1CCc1c[nH]c2ccccc12 (configuration not stated) |
| 855 | CC(=O)Nc1ccc(NC(=O)c2nc3ccccn3c2-c2ccc(Cl)cc2)cc1 |
| 590 | CC1CCCN(CCCNC(=O)c2cccc3c2SCCC3=O)C1 (configuration not stated) |
| 984 | CCc1nc(-c2csc(S(=O)(=O)N3CCCC(C(=O)Nc4ccc5c(c4)OCO5)C3)c2)no1 (configuration not stated) |
| 780 | CN[C@H](CNC(=O)N1CCC[C@@H]([C@@H](OCCNC(=O)OC)c2cccc(Cl)c2)C1)C[C@H]1CCCOC1 |
| 1040 | O=C(c1ccoc1)N1CC(Oc2ccc(-c3nc(-c4ccccc4)no3)cc2)C1 |
| 1070 | COC(=O)c1ccc(CSc2ncnc3c2cnn3-c2ccc(C)cc2C)o1 |
| 981 | CCOC(=O)c1cn(-c2c(F)c(F)c(C#N)c(F)c2F)c2c(F)c(F)c(F)cc2c1=O |
| 1080 | COc1cccc(-c2nc(Cn3ccn4nc(-c5ccc(F)cc5)cc4c3=O)c(C)o2)c1OC |
| 951 | CCCc1nc(-c2c(C)cc(C)nc2NC(=O)c2ccccc2C(F)(F)F)no1 |
| 816 | Cc1ccc(-c2nocc2CCC(=O)NCc2ccc3c(c2)OCO3)cc1 |
| 670 | CN(CC1CCOCC1)C(=O)Nc1ccc2c(c1)OCCO2 |
| 692 | Cc1ccc2c(=O)c(C(=O)N3CCCC3)cn(CC(=O)Nc3ccccc3C)c2n1 |
| 790 | C=CCNC(=O)N1CCCN(C2=NS(=O)(=O)C(c3ccc(CC)cc3)=C2C)CC1 |

| RP-LC retention time [s] | SMILES |
| --- | --- |
| 704 | CCC(=O)Nc1nc(-c2ccc3c(c2)NC(=O)CO3)cs1 |
| 664 | Cc1ccc(NC(=O)N2CCC(C)(C(=O)NCc3ccc(F)cc3)CC2)cc1Cl |
| 637 | CN1C(=O)CSc2cnn(CC(=O)NC3CCCC3)c(=O)c21 |
| 1100 | CCOC(=O)CCC(=O)Nc1cc(C)nn1-c1nc(-c2ccc(F)cc2)cs1 |
| 775 | CC(Cc1ccco1)NC(=O)CCCn1c2ccccc2c2cnn(C)c(=O)c21 (configuration not stated) |
| 1060 | CCCCn1c(=O)c2ccccc2n(Cc2nc(-c3ccc(OC)c(OC)c3)no2)c1=O |
| 932 | COc1cc(NC(=O)c2noc3c2CC(C)CC3)cc(OC)c1OC (configuration not stated) |
| 718 | O=C(NCCc1csc(C2CCCN(C(=O)C3CCCC3)C2)n1)C1CCC1 (configuration not stated) |
| 861 | Cc1ccc(-c2cn3c(CC(=O)Nc4ccc(F)cc4F)csc3n2)cc1C |
| 679 | CCCS(=O)(=O)NCCNc1cc(-n2nc(C)cc2C)ncn1 |
| 534 | O=C(NCCN1CCCCC1)C1CCc2sc(C(=O)N3CCCC3)cc2C1 (configuration not stated) |
| 679 | Cc1cccn2cc(C(=O)NCc3ccc4c(c3)OCO4)nc12 |
| 819 | Cc1cccc(NC(=O)C2CCN(S(=O)(=O)c3cc(C(=O)N4CCCC4)cs3)CC2)c1 |
| 933 | Cc1noc(-c2ccnc(SCC(=O)Nc3cccc(C(F)(F)F)c3)c2)n1 |
| 614 | OC(CN1CCN(c2ncccn2)CC1)c1ccc(Cl)cc1 (configuration not stated) |
| 727 | COc1cccc(CNC(=O)Cn2c(C)nc3onc(C)c3c2=O)c1 |
| 566 | CC(=O)N1CCc2cc(N3CC(C(=O)N4CCN(c5ccccn5)CC4)CC3=O)ccc21 (configuration not stated) |
| 737 | CC(=O)Nc1ccc(-c2noc(C3CCN(C(=O)c4ccc5cc[nH]c5c4)CC3)n2)cc1 |
| 622 | NC(=O)CNC(=O)c1sc2ncccc2c1-n1cccc1 |
| 800 | CCOc1ccc(NC(=O)c2oc3cc(Br)ccc3c2C)c2cccnc12 |
| 851 | CCc1ccc(Oc2cc(N3CCC(C(=O)NCCc4cccs4)CC3)ncn2)cc1 |
